Source: the supplement of paper PMC6045584
± gives the standard deviation of the averaged measurements.

The test systems below were run with C=CCNC1=C2C[C@@H](C)C[C@H](OC)[C@H](O)[C@@H](C)/C=C(\C)[C@H](OC(N)=O)[C@@H](OC)/C=C\C=C(/C)C(=O)NC(=CC1=O)C2=O [17-AAG] (assay: surviving fraction relative to DMSO-only wells; higher = less growth inhibition). Conditions: 0.5 nM; exposure time: 5 days.
In short: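 Tumour cell lines were seeded in log phase at 250–500 cells per well into 384-well plates. Starting 24 hours later, inhibitors were present continuously for five days at 0.5, 1, 5, 10, 50, 100, 500 and 1000 nM. Surviving fraction, from CellTiter-Glo luminescence, is normalised to the median of DMSO-only wells. Three screens per line were required, with replicate Pearson r >0.7 and median Z' >0.3 for a line to be kept.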

Compared with SUM149.B1*.S BREAST, 93VU HEADNECK is lower in surviving fraction: 0.9335 ± 0.0026 for the first, 0.814 ± 0.066 for the second.

Going from LM7 BONE to 143B BONE, the surviving fraction rises from 0.755 ± 0.098 to 0.985 ± 0.047.

SUM159 BREAST and SUM149 BREAST are within error of each other in surviving fraction: 1.02 ± 0.087 for the first, 0.924 ± 0.031 for the second.

MDAMB361 BREAST and SAOS2 BONE are within error of each other in surviving fraction: 0.765 ± 0.078 for the first, 0.829 ± 0.046 for the second.

ASKA SYNOVIAL and HCC1395 BREAST are within error of each other in surviving fraction: 0.785 ± 0.062 for the first, 0.823 ± 0.02 for the second.

First: HCC1954 BREAST
Second: CME SYNOVIAL
The surviving fraction of the first is lower: 0.387 ± 0.00071 for the first, 0.9 ± 0.14 for the second.

VCAP PROSTATE and YAMATO SYNOVIAL are within error of each other in surviving fraction: 0.94 ± 0.075 for the first, 0.976 ± 0.059 for the second.

HCC202 BREAST and HELA CERVIX are within error of each other in surviving fraction: 0.965 ± 0.13 for the first, 0.944 ± 0.039 for the second.

SG27 HEADNECK and CAL72 BONE are the same in surviving fraction: 1.046 ± 0.0051 for the first, 1.05 ± 0.064 for the second.

Going from MDAMB134 BREAST to C33A CERVIX, the surviving fraction rises from 0.609 ± 0.036 to 1.22 ± 0.12.

SKBR3 BREAST and MHM BONE are within error of each other in surviving fraction: 0.752 ± 0.21 for the first, 0.973 ± 0.016 for the second.

VP229 BREAST and SYO1 SYNOVIAL are within error of each other in surviving fraction: 0.808 ± 0.1 for the first, 0.8369 ± 0.0068 for the second.

ZR751 BREAST and KPD BONE are within error of each other in surviving fraction: 1.17 ± 0.2 for the first, 0.907 ± 0.085 for the second.

SIHA CERVIX and DU4475 BREAST are within error of each other in surviving fraction: 1.01 ± 0.073 for the first, 0.798 ± 0.24 for the second.

BT549 BREAST and COLO320DM LARGE INTESTINE are within error of each other in surviving fraction: 0.874 ± 0.12 for the first, 1.04 ± 0.084 for the second.

T47D BREAST and H23 LUNG are within error of each other in surviving fraction: 0.943 ± 0.058 for the first, 0.949 ± 0.026 for the second.

Same assay, conditions: 1 nM; exposure time: 5 days

Going from SUM149.B1*.S BREAST to 93VU HEADNECK, the surviving fraction falls from 0.893 ± 0.032 to 0.78 ± 0.0099.

First: LM7 BONE
Second: 143B BONE
The surviving fraction of the first is lower: 0.728 ± 0.03 for the first, 0.992 ± 0.063 for the second.

SUM159 BREAST and SUM149 BREAST are within error of each other in surviving fraction: 0.998 ± 0.046 for the first, 0.964 ± 0.026 for the second.

Compared with MDAMB361 BREAST, SAOS2 BONE is higher in surviving fraction: 0.728 ± 0.036 for the first, 0.775 ± 0.01 for the second.

ASKA SYNOVIAL and HCC1395 BREAST are within error of each other in surviving fraction: 0.728 ± 0.11 for the first, 0.862 ± 0.035 for the second.

Going from HCC1954 BREAST to CME SYNOVIAL, the surviving fraction rises from 0.292 ± 0.071 to 0.767 ± 0.024.

Going from VCAP PROSTATE to YAMATO SYNOVIAL, the surviving fraction falls from 0.969 ± 0.054 to 0.815 ± 0.022.

HCC202 BREAST and HELA CERVIX are within error of each other in surviving fraction: 0.988 ± 0.31 for the first, 0.921 ± 0.037 for the second.

SG27 HEADNECK and CAL72 BONE are within error of each other in surviving fraction: 1.07 ± 0.073 for the first, 1 ± 0.016 for the second.

Compared with MDAMB134 BREAST, C33A CERVIX is higher in surviving fraction: 0.648 ± 0.053 for the first, 1.04 ± 0.14 for the second.

First: SKBR3 BREAST
Second: MHM BONE
The surviving fraction of the first is lower: 0.76 ± 0.055 for the first, 0.966 ± 0.026 for the second.

VP229 BREAST and SYO1 SYNOVIAL are within error of each other in surviving fraction: 0.782 ± 0.031 for the first, 0.819 ± 0.049 for the second.

ZR751 BREAST and KPD BONE are within error of each other in surviving fraction: 1.04 ± 0.12 for the first, 0.894 ± 0.05 for the second.

SIHA CERVIX and DU4475 BREAST are within error of each other in surviving fraction: 0.939 ± 0.033 for the first, 0.794 ± 0.15 for the second.

First: BT549 BREAST
Second: COLO320DM LARGE INTESTINE
The surviving fraction of the first is lower: 0.811 ± 0.034 for the first, 0.959 ± 0.094 for the second.

T47D BREAST and H23 LUNG are within error of each other in surviving fraction: 0.914 ± 0.035 for the first, 0.939 ± 0.01 for the second.

Same assay, conditions: 5 nM; exposure time: 5 days

SUM149.B1*.S BREAST and 93VU HEADNECK are within error of each other in surviving fraction: 0.905 ± 0.038 for the first, 0.822 ± 0.088 for the second.

Going from LM7 BONE to 143B BONE, the surviving fraction rises from 0.763 ± 0.026 to 1.02 ± 0.029.

Going from SUM159 BREAST to SUM149 BREAST, the surviving fraction falls from 0.993 ± 0.062 to 0.87 ± 0.053.

Going from MDAMB361 BREAST to SAOS2 BONE, the surviving fraction rises from 0.454 ± 0.036 to 0.859 ± 0.099.

Going from ASKA SYNOVIAL to HCC1395 BREAST, the surviving fraction rises from 0.626 ± 0.045 to 0.957 ± 0.12.

First: HCC1954 BREAST
Second: CME SYNOVIAL
The surviving fraction of the first is lower: 0.195 ± 0.011 for the first, 1.01 ± 0.12 for the second.

VCAP PROSTATE and YAMATO SYNOVIAL are within error of each other in surviving fraction: 1.12 ± 0.17 for the first, 0.936 ± 0.084 for the second.

First: HCC202 BREAST
Second: HELA CERVIX
The surviving fraction of the first is lower: 0.715 ± 0.081 for the first, 0.924 ± 0.045 for the second.

Compared with SG27 HEADNECK, CAL72 BONE is higher in surviving fraction: 0.913 ± 0.039 for the first, 0.982 ± 0.016 for the second.

Compared with MDAMB134 BREAST, C33A CERVIX is higher in surviving fraction: 0.573 ± 0.066 for the first, 1.4 ± 0.13 for the second.

Compared with SKBR3 BREAST, MHM BONE is higher in surviving fraction: 0.497 ± 0.033 for the first, 0.987 ± 0.043 for the second.

VP229 BREAST and SYO1 SYNOVIAL are within error of each other in surviving fraction: 0.842 ± 0.076 for the first, 0.8483 ± 0.0038 for the second.

ZR751 BREAST and KPD BONE are within error of each other in surviving fraction: 0.994 ± 0.1 for the first, 0.913 ± 0.01 for the second.

SIHA CERVIX and DU4475 BREAST are within error of each other in surviving fraction: 0.969 ± 0.18 for the first, 0.764 ± 0.11 for the second.

Compared with BT549 BREAST, COLO320DM LARGE INTESTINE is higher in surviving fraction: 0.604 ± 0.092 for the first, 1.05 ± 0.038 for the second.

T47D BREAST and H23 LUNG are within error of each other in surviving fraction: 0.944 ± 0.011 for the first, 0.9313 ± 0.0035 for the second.

Same assay, conditions: 10 nM; exposure time: 5 days

SUM149.B1*.S BREAST and 93VU HEADNECK are within error of each other in surviving fraction: 0.83 ± 0.017 for the first, 0.92 ± 0.087 for the second.

Going from LM7 BONE to 143B BONE, the surviving fraction rises from 0.722 ± 0.01 to 0.965 ± 0.021.

Going from SUM159 BREAST to SUM149 BREAST, the surviving fraction falls from 0.946 ± 0.044 to 0.35 ± 0.018.

Compared with MDAMB361 BREAST, SAOS2 BONE is higher in surviving fraction: 0.332 ± 0.047 for the first, 0.77 ± 0.073 for the second.

Compared with ASKA SYNOVIAL, HCC1395 BREAST is higher in surviving fraction: 0.293 ± 0.025 for the first, 0.93 ± 0.067 for the second.

Compared with HCC1954 BREAST, CME SYNOVIAL is higher in surviving fraction: 0.131 ± 0.03 for the first, 0.896 ± 0.13 for the second.

VCAP PROSTATE and YAMATO SYNOVIAL are within error of each other in surviving fraction: 1.03 ± 0.12 for the first, 0.89 ± 0.039 for the second.

Going from HCC202 BREAST to HELA CERVIX, the surviving fraction rises from 0.537 ± 0.17 to 0.906 ± 0.043.

Going from SG27 HEADNECK to CAL72 BONE, the surviving fraction rises from 0.93 ± 0.026 to 1 ± 0.017.

First: MDAMB134 BREAST
Second: C33A CERVIX
The surviving fraction of the first is lower: 0.667 ± 0.051 for the first, 1.2 ± 0.09 for the second.

Compared with SKBR3 BREAST, MHM BONE is higher in surviving fraction: 0.365 ± 0.026 for the first, 1.019 ± 0.0027 for the second.

VP229 BREAST and SYO1 SYNOVIAL are within error of each other in surviving fraction: 0.773 ± 0.085 for the first, 0.8 ± 0.038 for the second.

ZR751 BREAST and KPD BONE are within error of each other in surviving fraction: 0.618 ± 0.13 for the first, 0.828 ± 0.084 for the second.

First: SIHA CERVIX
Second: DU4475 BREAST
The surviving fraction of the first is higher: 0.895 ± 0.032 for the first, 0.392 ± 0.11 for the second.

Compared with BT549 BREAST, COLO320DM LARGE INTESTINE is higher in surviving fraction: 0.259 ± 0.064 for the first, 1.17 ± 0.075 for the second.

Going from T47D BREAST to H23 LUNG, the surviving fraction falls from 0.958 ± 0.046 to 0.727 ± 0.03.
